Assay results as given in patent US9133115B2 (ACHILLION PHARMACEUTICALS, INC., priority 2008, dated 2015).

test system: HCV replicon; assay: HCV replicon replication assay (NPT ELISA) in Huh-7 replicon-containing cells; format: cell-based; conditions: Hepatitis C virus, 72 h; HCV replicon in Huh-7 cells, three days incubation; read-out: EC50
Description: Compounds claimed herein are tested for the ability to inhibit viral replication of the Hepatitis C replicon in cultured cells in which the HCV replicon construct has been incorporated. The HCV replicon system was described by Bartenschlager, et. al (Science, 285, pp. 110-113 (1999)). The replicon system is predictive of in vivo anti-HCV activity; compounds that are active in humans uniformly evidence activity in the replicon assay.
In this assay HCV replicon containing cells are treated with different concentrations of the test compound to ascertain the ability of the test compound to suppress replication of the HCV replicon. As a positive control, HCV replicon-containing cells are treated with different concentrations of interferon alpha, a known inhibitor of HCV replication. The replicon assay system includes Neomycin Phosphotransferase (NPT) as a component of the replicon itself in order to detect the transcription of replicon gene products in the host cell. Cells in which the HCV replicon is actively replicating have high levels of NPT; the level of NPT is proportional to HCV replication. […] The NPT level of each sample is measured using a captured ELISA.
A protocol for testing compounds for the ability to inhibit viral replication of the Hepatitis C replicon cultured cells in which the replicon construct has been incorporated, follows.
The HCV replicon contains, 5′-3′, the HCV-IRES, the neomycin phosphotransferase (neo) gene, the IRES of encephalomyocarditis virus, which directs translation of HCV sequences NS3 to NS5B, and the 3′-NTR. The sequence of the HCV replicon has been deposited in GenBank (Accession no. AJ242652).
The replicon is transfected into Huh-7 cells using standard methods such as electroporation.
The equipment and materials include, but are not limited to, Huh-7 HCV replicon-containing cells, maintenance media (DMEM (Dulbecco's modified Eagle media) supplemented with 10% FBS, L-glutamine, non-essential amino acids, penicillin (100 units/ml), streptomycin (100 micrograms/ml), and 500 micrograms/ml of Geneticin (G418), screening media (DMEM supplemented with 10% FBS, L-glutamine, non-essential amino acids, penicillin (100 units/ml) and streptomycin (100 micrograms/ml)), 96 well tissue culture plates (flat bottom), 96 well plates (U bottom for drug dilution), Interferon alpha for positive control, fixation reagent (such as methanol: acetone), primary antibody (rabbit anti-NPTII), secondary antibody: Eu-N1 l, and enhancement solution.
HCV replicon-containing cells support high levels of viral RNA replicon replication when their density is suitable. Over-confluency causes decreased viral RNA replication. Therefore, cells must be kept growing in log phase in the presence of 500 micrograms/ml of G418. Generally, cells should be passed twice a week at 1: 4-6 dilution. Cell maintenance is conducted as follows:
HCV replicon-containing cells are examined under a microscope to ensure that cells growing well. Cells are rinsed once with PBS and 2 ml trypsin is added. The cell/trypsin mixture is incubated at 37° C. in a CO2 incubator for 3-5 minutes. After incubation 10 ml of complete media is added to stop the trypsinization reaction. Cells are blown gently, put into a 15 ml tube, and spun at 1200 rpm for 4 minutes. The trypsin/medium solution is removed. Medium (5 ml) is added and the cells are mixed carefully. The cells are counted.
The cells are then seeded onto 96-well plates at a density of 6000-7500 cells/100 microliters/well (6-7.5×10^5 cells/10 ml/plate). The plates are then incubated at 37° C. in a 5% CO2 incubator.
Cells are examined under a microscope approximated 24 hours after seeding and prior to adding drugs. If counting and dilution were performed correctly, cells are 60-70% confluent and nearly all cells should attach and spread evenly in the well.
HCV replicon-containing cells are rinsed with once PBS once; 2 mls of trypsin are then added. Cells are incubated at 37° C. in a 5% CO2 incubator for 3-5 minutes. […]

| SMILES | EC50 [µM] |
| --- | --- |
| C=C[C@@H]1C[C@]1(NC(=O)[C@@H]1C[C@@H](OC(=O)Nc2ccc(-c3ccccc3)cc2)CN1C(=O)[C@@H](CC(=O)N1CCCCC1)C(C)(C)C)C(=O)NS(=O)(=O)C1CC1 [Compound 61, (3R,5S)-1-((S)-2-tert-butyl-4-oxo-4-(piperidin-1-yl)butanoyl)-5-((1R,2S)-1-(cyclopropyl-sulfonylcarbamoyl)-2-vinylcyclopropyl-carbamoyl)pyrrolidin-3-yl biphenyl-4-ylcarbamate] | 1 to 10 |
| C=C[C@@H]1C[C@]1(NC(=O)[C@@H]1C[C@@H](Oc2cc(-c3ccccc3)nc3cc(OC)ccc23)CN1C(=O)[C@@H](CC(=O)N1CCCCC1)C(C)(C)C)C(=O)NS(=O)(=O)c1ccccc1 [Compound 62, (2S,4R)-1-((S)-2-tert-butyl-4-oxo-4-(piperidin-1-yl)butanoyl)-4-(7-methoxy-2-phenylquinolin-4-yloxy)-N-((1R,2S)-1-(phenylsulfonyl-carbamoyl)-2-vinyl-cyclopropyl)pyr-rolidine-2-carboxamide] | < 1 |
| C=C[C@@H]1C[C@]1(NC(=O)[C@@H]1C[C@@H](Oc2cc(-c3ccccc3)nc3cc(OC)ccc23)CN1C(=O)[C@@H](CC(=O)N1CCCCC1)C(C)(C)C)C(=O)NS(=O)(=O)C(C)C [Compound 63, (2S,4R)-1-((S)-2-tert-butyl-4-oxo-4-(piperidin-1-yl)butanoyl)-N-((1R,2S)-1-(isopropylsulfonyl-carbamoyl)-2-vinylcyclopropyl)-4-(7-methoxy-2-phenylquinolin-4-yloxy)pyrrolidine-2-carboxamide] | < 1 |
| C=C[C@@H]1C[C@]1(NC(=O)[C@@H]1C[C@@H](Oc2cc(-c3ccccc3)nc3cc(OC)ccc23)CN1C(=O)[C@@H](CC(=O)N1CCCCC1)C(C)(C)C)C(=O)NS(=O)(=O)Cc1ccccc1 [Compound 64, (2S,4R)-N-((1R,2S)-1-(benzylsulfonyl-carbamoyl)-2-vinylcyclopropyl)-1-((S)-2-tert-butyl-4-oxo-4-(piperidin-1-yl)butanoyl)-4-(7-methoxy-2-phenylquinolin-4-yloxy)pyrrolidine-2-carboxamide] | 1 to 10 |
| C=C[C@@H]1C[C@]1(NC(=O)[C@@H]1C[C@@H](Oc2cc(-c3ccccc3)nc3cc(OC)ccc23)CN1C(=O)[C@@H](CC(=O)N1CCCCC1)C(C)(C)C)C(=O)NS(=O)(=O)C(C)(C)C [Compound 65, (2S,4R)-1-((S)-2-tert-butyl-4-oxo-4-(piperidin-1-yl)butanoyl)-N-((1R,2S)-1-(tert-butylsulfonyl-carbamoyl)-2-vinylcyclopropyl)-4-(7-methoxy-2-phenylquinolin-4-yloxy)pyrrolidine-2-carboxamide] | 1 to 10 |
| C=C[C@@H]1C[C@]1(NC(=O)[C@@H]1C[C@@H](Oc2cc(-c3ccccc3)nc3cc(OC)ccc23)CN1C(=O)[C@@H](CC(=O)N1CCCCC1)C(C)(C)C)C(=O)NS(=O)(=O)C(F)(F)F [Compound 66, (2S,4R)-1-((S)-2-tert-butyl-4-oxo-4-(piperidin-1-yl)butanoyl)-4-(7-methoxy-2-phenylquinolin-4-yloxy)-N-((1R,2S)-1-(trifluoromethyl-sulfonylcarbamoyl)-2-vinylcyclo-propyl)pyrrolidine-2-carboxamide] | 1 to 10 |
| C=C[C@@H]1C[C@]1(NC(=O)[C@@H]1C[C@@H](Oc2cc(-c3ccccc3)nc3cc(OC)ccc23)CN1C(=O)[C@@H](CC(=O)N1CCCCC1)C(C)(C)C)C(=O)NS(=O)(=O)c1ccc(Cl)cc1 [Compound 67, (2S,4R)-1-((S)-2-tert-butyl-4-oxo-4-(piperidin-1-yl)butanoyl)-N-((1R,2S)-1-(4-chlorophenyl-sulfonylcarbamoyl)-2-vinylcyclopropyl)-4-(7-methoxy-2-phenylquinolin-4-yloxy)pyrrolidine-2-carboxamide] | < 1 |
| C=C[C@@H]1C[C@]1(NC(=O)[C@@H]1C[C@@H](Oc2cc(-c3ccccc3)nc3cc(OC)ccc23)CN1C(=O)[C@@H](CC(=O)N1CCCCC1)C(C)(C)C)C(=O)NS(C)(=O)=O [Compound 68, (2S,4R)-1-((S)-2-tert-butyl-4-oxo-4-(piperidin-1-yl)butanoyl)-4-(7-methoxy-2-phenylquinolin-4-yloxy)-N-((1R,2S)-1-(methylsulfonyl-carbamoyl)-2-vinyl-cyclopropyl)pyr-rolidine-2-carboxamide] | < 1 |
| C=C[C@@H]1C[C@]1(NC(=O)[C@@H]1C[C@@H](Oc2cc(-c3ccccc3)nc3cc(OC)ccc23)CN1C(=O)[C@@H](CC(=O)N1CCCCC1)C(C)(C)C)C(=O)NS(=O)(=O)c1ccc(C)cc1 [Compound 69, (2S,4R)-1-((S)-2-tert-butyl-4-oxo-4-(piperidin-1-yl)butanoyl)-4-(7-methoxy-2-phenylquinolin-4-yloxy)-N-((1R,2S)-1-(p-tolylsulfonyl-carbamoyl)-2-vinyl-cyclopropyl)pyr-rolidine-2-carboxamide] | < 1 |
| C=C[C@@H]1C[C@]1(NC(=O)[C@@H]1C[C@@H](Oc2nc(-c3ccccc3)cc3cc(OC)ccc23)CN1C(=O)[C@@H](CC(=O)N1CCCCC1)C(C)(C)C)C(=O)NS(=O)(=O)C1CC1 [Compound 70, (2S,4R)-1-((S)-2-tert-butyl-4-oxo-4-(piperidin-1-yl)butanoyl)-N-((1R,2S)-1-(cyclo-propylsulfonyl-carbamoyl)-2-vinylcyclopropyl)-4-(6-methoxy-3-phenylisoquinolin-1-yloxy)pyrrolidine-2-carboxamide] | < 1 |
| C=C[C@@H]1C[C@]1(NC(=O)[C@@H]1C[C@@H](Oc2nc(-c3ccccc3)cc3cc(OC)ccc23)CN1C(=O)[C@@H](CC(=O)N1CCOCC1)C(C)(C)C)C(=O)NS(=O)(=O)C1CC1 [Compound 71, (2S,4R)-1-((S)-2-tert-butyl-4-morpholino-4-oxobutanoyl)-N-((1R,2S)-1-(cyclopropylsulfonyl-carbamoyl)-2-vinylcyclopropyl)-4-(6-methoxy-3-phenylisoquinolin-1-yloxy)pyrrolidine-2-carboxamide] | < 1 |
| C=C[C@@H]1C[C@]1(NC(=O)[C@@H]1C[C@@H](Oc2cc(-c3ccccc3)nc3cc(OC)ccc23)CN1C(=O)[C@@H](CC(=O)N1CCCCC1)C(C)(C)C)C(=O)NS(=O)(=O)c1cccs1 [Compound 72, (2S,4R)-1-((S)-2-tert-butyl-4-oxo-4-(piperidin-1-yl)butanoyl)-4-(7-methoxy-2-phenylquinolin-4-yloxy)-N-((1R,2S)-1-(thiophen-2-ylsulfonylcarbamoyl)-2-vinylcyclopropyl)pyr-rolidine-2-carboxamide] | < 1 |
| C=C[C@@H]1C[C@]1(NC(=O)[C@@H]1C[C@@H](Oc2cc(-c3ccccc3)nc3cc(OC)ccc23)CN1C(=O)[C@@H](CC(=O)N1CCCCC1)C(C)(C)C)C(=O)NS(=O)(=O)c1cn(C)cn1 [Compound 73, (2S,4R)-1-((S)-2-tert-butyl-4-oxo-4-(piperidin-1-yl)butanoyl)-4-(7-methoxy-2-phenylquinolin-4-yloxy)-N-((1R,2S)-1-(1-methyl-1H-imidazol-4-ylsulfonylcarbamoyl)-2-vinylcycloprop-yl)pyrrolidine-2-carboxamide] | 1 to 10 |
| C=C[C@@H]1C[C@]1(NC(=O)[C@@H]1C[C@@H](Oc2cc(-c3ccccc3)nc3cc(OC)ccc23)CN1C(=O)[C@@H](CC(=O)N1CCC2CCCCC2C1)C(C)(C)C)C(=O)NS(=O)(=O)C1CC1 (stereo partly drawn) [Compound 74, (2S,4R)-1-((2S)-2-tert-butyl-4-(octa-hydroisoquinolin-2(1H)-yl)-4-oxobutanoyl)-N-((1R,2S)-1-(cyclo-propylsulfonyl-carbamoyl)-2-vinylcycloprop-yl)-4-(7-methoxy-2-phenylquinolin-4-yloxy)pyrrolidine-2-carboxamide] | < 1 |
